Measured values: patent US11285127B2, “Compositions and methods for lowering triglycerides without raising LDL-C levels in a subject on concomitant statin therapy” (Amarin Pharmaceuticals Ireland Limited, priority 2013, dated 2022)

System: patients with fasting triglyceride levels >200 mg/dl and <500 mg/dl despite statin therapy
Experiment: 12-week study: red blood cell fatty acids (EPA concentration, FADI ratios) by gas chromatography/flame ionization detection
Type: in vivo, human
Conditions: 4 g/day, placebo-adjusted, 12 weeks
Procedure: A multi-center, placebo-controlled, randomized, double-blind, 12-week study was performed to evaluate the efficacy and safety of >96% E-EPA in patients with fasting triglyceride levels >200 mg/dl and <500 mg/dl despite statin therapy (the mean of two qualifying entry values needed to be >185 mg/dl and at least one of the values needed to be >200 mg/dl). The primary objective of the study was to determine the efficacy of >96% E-EPA 2 g daily and 4 g daily, compared to placebo, in lowering fasting TG levels in patients with high risk for cardiovascular disease and with fasting TG levels 200 mg/dl and <500 mg/dl, despite treatment to LDL-C goal on statin therapy. The secondary objectives of this study were the following: • 1. To determine the safety and tolerability of >96% E-EPA 2 g daily and 4 g daily; • 2. To determine the effect of >96% E-EPA on lipid and apolipoprotein profiles including total cholesterol (TC), non-high-density lipoprotein cholesterol (non-HDL-C), low density lipoprotein cholesterol (LDL-C), high density lipoprotein cholesterol (HDL-C), and […]; • 3. To determine the effect of >96% E-EPA on lipoprotein associated phospholipase A2 (Lp-PLA2) from baseline to week 12; • 4. To determine the effect of >96% E-EPA on low-density lipoprotein (LDL) particle number and size; • 5. […]

SMILES: CC/C=C\C/C=C\C/C=C\C/C=C\C/C=C\CCCC(=O)OCC [AMR101, ethyl eicosapentaenoate]
- FADI-16 (Palmitoleic acid/Palmitic acid, C16:1/C16:0), % Change, RBCs: −15.7%
- FADI-18 (Oleic acid/Stearic Acid, C18:1/C18:0), % Change, RBCs: −3.1%
